Reference: patent publication US9567336B2, “Conjugated TLR7 and/or TLR8 and TLR2 agonists” (CAYLA, priority 2012, dated 2017)

Experiments:
human TLR7 = molecular target: T1, human TLR7 (Homo sapiens, UniProt Q9NYK1); assay: HEK-Blue hTLR7 NF-κB/AP-1 SEAP reporter cell assay; assay type: cell-based; settings: HEK-Blue hTLR7 reporter cells, 10 μg/mL to 10 pg/ml, 24 hours, OD at 655 nm; FIGS. 1A, 1B
T1 construct: host or cells: HEK293 (HEK-Blue hTLR7)
T1 sequence (Q9NYK1 27-1049): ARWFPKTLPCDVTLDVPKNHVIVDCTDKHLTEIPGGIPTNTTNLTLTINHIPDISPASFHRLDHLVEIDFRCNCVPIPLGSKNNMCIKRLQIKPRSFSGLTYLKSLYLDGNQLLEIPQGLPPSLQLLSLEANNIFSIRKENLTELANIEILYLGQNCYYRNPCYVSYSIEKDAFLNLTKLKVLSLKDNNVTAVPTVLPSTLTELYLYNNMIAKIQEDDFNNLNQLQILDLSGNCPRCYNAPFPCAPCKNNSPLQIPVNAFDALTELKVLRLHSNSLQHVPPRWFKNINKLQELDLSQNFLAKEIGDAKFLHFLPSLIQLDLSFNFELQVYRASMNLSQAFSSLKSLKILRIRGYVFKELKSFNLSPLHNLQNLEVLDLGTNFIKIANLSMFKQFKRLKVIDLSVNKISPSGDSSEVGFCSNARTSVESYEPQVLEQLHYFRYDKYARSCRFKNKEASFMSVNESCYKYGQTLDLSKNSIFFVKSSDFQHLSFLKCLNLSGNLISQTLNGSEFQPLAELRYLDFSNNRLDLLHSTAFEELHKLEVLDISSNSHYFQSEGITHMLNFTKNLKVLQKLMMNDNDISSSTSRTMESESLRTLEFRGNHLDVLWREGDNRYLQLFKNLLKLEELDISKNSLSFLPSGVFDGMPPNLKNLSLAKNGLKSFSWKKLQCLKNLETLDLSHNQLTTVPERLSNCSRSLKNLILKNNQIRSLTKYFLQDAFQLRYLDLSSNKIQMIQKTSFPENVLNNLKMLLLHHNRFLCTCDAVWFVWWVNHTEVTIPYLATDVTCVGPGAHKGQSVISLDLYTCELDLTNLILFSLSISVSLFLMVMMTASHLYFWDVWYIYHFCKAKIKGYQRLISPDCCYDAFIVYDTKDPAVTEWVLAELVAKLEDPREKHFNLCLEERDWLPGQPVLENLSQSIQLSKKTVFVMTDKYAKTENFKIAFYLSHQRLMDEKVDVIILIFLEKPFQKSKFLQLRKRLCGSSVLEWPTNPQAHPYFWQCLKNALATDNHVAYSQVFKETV
Description: (§1) Some conjugated compounds of the invention were tested for their ability to activate TLR7 and TLR2 receptor signaling. Cell-based assays were carried out using TLR7 and TLR2 reporter cell lines (InvivoGen). The reporter cell lines are engineered HEK293 cells, a human embryonic kidney cell line (ATCC, CRL-1573) that stably express either murine TLR7 (HEK-Blue™ mTLR7) or human TLR7 (HEK-Blue™ hTLR7) or murine TLR2 (HEK-Blue™ mTLR2) or human TLR2 (HEK-Blue™ hTLR2) with an NF-κB-inducible secreted embryonic alkaline phosphatase (SEAP) as the reporter gene. The SEAP reporter gene is placed under the control of the NF-κB and AP-inducible promoter. Stimulation with the corresponding TLR ligand activates NF-κB and AP-1, which induces the production of SEAP. Detection of SEAP is measured following culturing cells in HEK-Blue™ Detection media (InvivoGen). HEK-Blue™ Detection contains a SEAP substrate, which upon hydrolysis by SEAP produces a colorimetric change allowing for detection of SEAP as the protein is secreted. […] These assays were carried out using RAW-Blue™ Cells (InvivoGen), derived from RAW 264.7 mouse leukemic monocytic macrophage cell line (ATCC, CRL 2278) stably overexpressing a NF-κB/AP-1 inducible SEAP reporter constructs.
(§2) To perform the assay, cells were seeded on 96 well microliter plates at 50,000 or 100,000 cells per well for HEK-Blue™ Cells and RAW-Blue™ Cells respectively, and cultured at 37° C. in the presence of the conjugated compounds. The conjugated compounds were prepared as follows: First, stock solutions of the small molecule conjugated compounds of the invention were prepared in ethanol or water to a concentration of 10 mg/ml. A working dilution of the conjugated TLR7-TLR2 small molecules was made up in water and added to cells at a final range of concentrations from 10 μg/mL to 10 pg/ml. The working dilutions of the conjugated TLR7-TLR2 small molecules as the stated concentrations were directly added to the reporter cell lines and incubated at 37° C. for 24 hours. After 24 hours of incubation, the effect on reporter gene activity was determined by reading the OD at 655 nm using iMark™ Microplate Reader (BIO-RAD).
(§3) The conjugated compounds were tested alone for their ability to specifically activate TLR7 and TLR2, alongside the known TLR7 activators R848 or CL264 (InvivoGen) and the TLR2 agonists Pam2CSK4 or Pam3CSK4 (InvivoGen). The specificity of the TLR activity was determined by use of reporter cell lines to the other TLRs (data not shown). […] The molecules show a tendency to activate mouse TLR7 with greater sensitivity than human TLR7. […] Furthermore, dose-dependent responses of the conjugated compounds indicate significant TLR activities of TLR7 and TLR2 compared to the corresponding controls.

murine TLR7 = molecular target: T2, murine TLR7 (Mus musculus, UniProt P58681); assay: HEK-Blue mTLR7 NF-κB/AP-1 SEAP reporter cell assay; assay type: cell-based; settings: HEK-Blue mTLR7 reporter cells, 10 μg/mL to 10 pg/ml, 24 hours, OD at 655 nm; FIGS. 2A, 2B
T2 construct: host or cells: HEK293 (HEK-Blue mTLR7)
T2 sequence (P58681 27-1050): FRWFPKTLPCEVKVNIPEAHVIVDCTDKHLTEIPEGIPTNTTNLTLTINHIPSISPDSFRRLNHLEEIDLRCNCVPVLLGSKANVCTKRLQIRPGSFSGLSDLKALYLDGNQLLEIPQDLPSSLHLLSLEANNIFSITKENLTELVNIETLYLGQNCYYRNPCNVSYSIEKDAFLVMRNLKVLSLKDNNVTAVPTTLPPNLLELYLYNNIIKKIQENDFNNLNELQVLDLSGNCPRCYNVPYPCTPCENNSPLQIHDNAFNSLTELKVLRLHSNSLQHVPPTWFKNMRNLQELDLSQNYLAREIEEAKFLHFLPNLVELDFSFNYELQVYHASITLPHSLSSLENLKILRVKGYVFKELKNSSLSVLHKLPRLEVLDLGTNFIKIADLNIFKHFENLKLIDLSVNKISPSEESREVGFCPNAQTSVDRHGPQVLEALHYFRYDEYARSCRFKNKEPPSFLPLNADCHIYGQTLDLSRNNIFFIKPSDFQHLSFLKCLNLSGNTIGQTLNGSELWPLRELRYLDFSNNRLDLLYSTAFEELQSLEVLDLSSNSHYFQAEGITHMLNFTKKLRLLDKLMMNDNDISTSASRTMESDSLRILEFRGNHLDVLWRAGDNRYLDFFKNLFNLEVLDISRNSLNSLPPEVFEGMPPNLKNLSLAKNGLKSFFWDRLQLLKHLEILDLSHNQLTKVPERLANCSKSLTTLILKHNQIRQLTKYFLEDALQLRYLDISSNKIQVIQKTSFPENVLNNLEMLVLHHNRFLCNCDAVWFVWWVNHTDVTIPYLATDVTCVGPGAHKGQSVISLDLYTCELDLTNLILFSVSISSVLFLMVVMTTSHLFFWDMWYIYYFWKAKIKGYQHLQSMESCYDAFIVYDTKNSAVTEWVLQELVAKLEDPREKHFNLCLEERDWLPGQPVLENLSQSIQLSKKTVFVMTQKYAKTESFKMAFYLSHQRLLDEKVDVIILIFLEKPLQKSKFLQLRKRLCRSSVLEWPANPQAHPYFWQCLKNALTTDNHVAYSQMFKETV
Description: as §1, §2, §3

human TLR2 = molecular target: T3, human TLR2 (Homo sapiens, UniProt O60603); assay: HEK-Blue hTLR2 NF-κB/AP-1 SEAP reporter cell assay; assay type: cell-based; settings: HEK-Blue hTLR2 reporter cells, 10 μg/mL to 10 pg/ml, 24 hours, OD at 655 nm; FIGS. 3A, 3B
T3 construct: host or cells: HEK293 (HEK-Blue hTLR2)
Description: as §1, §2, §3

murine TLR2 = molecular target: T4, murine TLR2 (Mus musculus, UniProt Q9QUN7); assay: HEK-Blue mTLR2 NF-κB/AP-1 SEAP reporter cell assay; assay type: cell-based; settings: HEK-Blue mTLR2 reporter cells, 10 μg/mL to 10 pg/ml, 24 hours, OD at 655 nm; FIG. 4
T4 construct: host or cells: HEK293 (HEK-Blue mTLR2)
Description: as §1, §2, §3

[1] = test system: NF-κB in RAW-Blue™ Cells (RAW 264.7, endogenous TLR7 and TLR2); assay: RAW-Blue Cells NF-κB/AP-1 inducible SEAP reporter assay; assay type: cell-based, mouse; settings: murine monocytic macrophage cell line RAW 264.7, 24 hours, OD at 655 nm; FIGS. 5A, 5B
Description: as §1, §2, §3

T3 sequence (O60603 21-784): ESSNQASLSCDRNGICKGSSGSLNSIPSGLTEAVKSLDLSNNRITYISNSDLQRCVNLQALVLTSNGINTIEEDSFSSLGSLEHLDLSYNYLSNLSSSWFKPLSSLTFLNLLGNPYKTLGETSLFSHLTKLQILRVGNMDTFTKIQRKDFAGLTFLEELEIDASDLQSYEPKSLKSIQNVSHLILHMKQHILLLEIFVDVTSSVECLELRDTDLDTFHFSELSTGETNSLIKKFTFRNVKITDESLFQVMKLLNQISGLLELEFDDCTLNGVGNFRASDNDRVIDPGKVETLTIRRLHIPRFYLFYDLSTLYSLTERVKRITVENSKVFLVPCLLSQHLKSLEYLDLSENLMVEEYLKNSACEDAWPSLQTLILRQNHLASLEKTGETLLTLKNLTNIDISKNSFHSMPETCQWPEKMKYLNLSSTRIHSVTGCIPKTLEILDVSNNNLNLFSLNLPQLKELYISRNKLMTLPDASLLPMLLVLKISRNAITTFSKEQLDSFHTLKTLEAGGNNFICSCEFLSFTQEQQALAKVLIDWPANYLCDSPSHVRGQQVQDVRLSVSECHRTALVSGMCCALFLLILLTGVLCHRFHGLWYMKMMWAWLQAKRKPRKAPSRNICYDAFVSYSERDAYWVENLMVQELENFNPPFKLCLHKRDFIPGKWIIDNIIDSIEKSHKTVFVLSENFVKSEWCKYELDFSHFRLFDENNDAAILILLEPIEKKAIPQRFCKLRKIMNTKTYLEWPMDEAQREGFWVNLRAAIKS
T4 sequence (Q9QUN7 25-784): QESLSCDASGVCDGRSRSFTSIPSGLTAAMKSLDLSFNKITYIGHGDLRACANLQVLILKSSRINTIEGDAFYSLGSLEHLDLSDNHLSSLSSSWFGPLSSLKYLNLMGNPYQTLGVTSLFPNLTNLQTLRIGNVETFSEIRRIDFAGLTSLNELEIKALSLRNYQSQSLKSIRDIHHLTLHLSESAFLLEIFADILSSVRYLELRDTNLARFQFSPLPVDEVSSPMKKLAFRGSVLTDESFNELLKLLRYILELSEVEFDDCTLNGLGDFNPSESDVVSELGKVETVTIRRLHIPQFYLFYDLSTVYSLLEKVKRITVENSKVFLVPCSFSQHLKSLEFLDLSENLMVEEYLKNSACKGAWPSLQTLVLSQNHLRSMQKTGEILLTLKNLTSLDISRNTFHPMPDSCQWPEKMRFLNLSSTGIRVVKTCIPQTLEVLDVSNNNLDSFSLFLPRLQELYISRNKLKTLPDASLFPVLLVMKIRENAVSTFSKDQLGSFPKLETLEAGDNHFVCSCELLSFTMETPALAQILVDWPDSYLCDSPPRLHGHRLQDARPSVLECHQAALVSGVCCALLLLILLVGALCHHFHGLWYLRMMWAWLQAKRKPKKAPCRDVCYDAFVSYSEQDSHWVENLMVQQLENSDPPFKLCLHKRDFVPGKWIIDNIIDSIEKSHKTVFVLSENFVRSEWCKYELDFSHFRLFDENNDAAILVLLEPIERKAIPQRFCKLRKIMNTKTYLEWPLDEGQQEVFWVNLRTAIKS

CCCCCCCCCCCCCC(=O)OCCSC[C@H](N)C(=O)N[C@@H](CO)C(=O)Nc1ccc(Cn2c(O)nc3c(N)nc(NCCCC)nc32)cc1 [CL558, 2-((R)-2-amino-3-((S)-1-(4-((6-amino-2-(butylamino)-8-hydroxy-9H-purin-9-yl)methyl)phenylamino)-3-hydroxy-1-oxopropan-2-ylamino)-3-oxopropylthio)ethyltetradecanoate]
ability to activate TLR7 receptors (human TLR7) (human TLR7): activate TLR7 receptors | ability to activate TLR7 receptors (murine TLR7) (murine TLR7): activate TLR7 receptors | ability to activate TLR2 receptor (human TLR2) (human TLR2): activate TLR2 receptor | ability to activate TLR2 receptor (murine TLR2) (murine TLR2): activate TLR2 receptor | induction of NF-κB in RAW-Blue cells [1]: activate NF-κB

CCCCCCCCCCCCCCCCCC(=O)OCCSC[C@H](N)C(=O)Nc1ccc(Cn2c(O)nc3c(N)nc(NCCCC)nc32)cc1 [CL557, (R)-2-(2-amino-3-(4-((6-amino-2-(butylamino)-8-hydroxy-9H-purin-9-yl)methyl)phenylamino)-3-oxopropylthio)ethyl stearate]
ability to activate TLR7 receptors (human TLR7) (human TLR7): activate TLR7 receptors | ability to activate TLR7 receptors (murine TLR7) (murine TLR7): activate TLR7 receptors | ability to activate TLR2 receptor (human TLR2) (human TLR2): activate TLR2 receptor | ability to activate TLR2 receptor (murine TLR2) (murine TLR2): activate TLR2 receptor | induction of NF-κB in RAW-Blue cells [1]: activate NF-κB

CCCCCCCCCCCCCCCC(=O)OCCSC[C@H](N)C(=O)N[C@@H](CO)C(=O)Nc1ccc(Cn2c(O)nc3c(N)nc(NCCCC)nc32)cc1 [CL559, 2-((R)-2-amino-3-((S)-1-(4-((6-amino-2-(butylamino)-8-hydroxy-9H-purin-9-yl)methyl)phenylamino)-3-hydroxy-1-oxopropan-2-ylamino)-3-oxopropylthio)ethyl palmitate]
ability to activate TLR7 receptors (human TLR7) (human TLR7): activate TLR7 receptors | ability to activate TLR7 receptors (murine TLR7) (murine TLR7): activate TLR7 receptors | ability to activate TLR2 receptor (human TLR2) (human TLR2): activate TLR2 receptor | ability to activate TLR2 receptor (murine TLR2) (murine TLR2): activate TLR2 receptor | induction of NF-κB in RAW-Blue cells [1]: activate NF-κB
